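These data come from cells grown in 96-well plates and exposed to compound for 48 hours at five concentrations. GI50 = concentration required for 50% inhibition of growth. TGI: total growth inhibition.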
Assays:
Assay in all cases: inhibition of tumour cell growth, NCI panel, 48 h
K-562 leukemia = tested on: K-562 leukemia
UACC-62 melanoma = tested on: UACC-62 melanoma
DU-145 prostate = tested on: DU-145 prostate
NCI/ADR-RES ovarian = tested on: NCI/ADR-RES ovarian
U251 CNS = tested on: U251 CNS
BT-549 breast = tested on: BT-549 breast
HL-60(TB) leukemia = tested on: HL-60(TB) leukemia
T-47D breast = tested on: T-47D breast
RXF 393 renal = tested on: RXF 393 renal
HOP-92 NSCLC = tested on: HOP-92 NSCLC
OVCAR-4 ovarian = tested on: OVCAR-4 ovarian
HT29 colon = tested on: HT29 colon
SK-MEL-28 melanoma = tested on: SK-MEL-28 melanoma
HCC-2998 colon = tested on: HCC-2998 colon
MALME-3M melanoma = tested on: MALME-3M melanoma
SF-295 CNS = tested on: SF-295 CNS
HOP-62 NSCLC = tested on: HOP-62 NSCLC
M14 melanoma = tested on: M14 melanoma
SF-268 CNS = tested on: SF-268 CNS
SN12C renal = tested on: SN12C renal
SK-OV-3 ovarian = tested on: SK-OV-3 ovarian
SNB-19 CNS = tested on: SNB-19 CNS
SNB-75 CNS = tested on: SNB-75 CNS
UACC-257 melanoma = tested on: UACC-257 melanoma
SW-620 colon = tested on: SW-620 colon
EKVX NSCLC = tested on: EKVX NSCLC
HCT-15 colon = tested on: HCT-15 colon
RPMI-8226 leukemia = tested on: RPMI-8226 leukemia
COLO 205 colon = tested on: COLO 205 colon

Fc1cnc(NC2CC2)nc1-c1cnc2ccc(N3CCOCC3)cn12
GI50 (K-562 leukemia): 441 nM | TGI (K-562 leukemia): > 100000 nM | GI50 (UACC-62 melanoma): 200 nM | TGI (UACC-62 melanoma): 699 nM | GI50 (DU-145 prostate): 323 nM | TGI (DU-145 prostate): > 60900 nM | GI50 (NCI/ADR-RES ovarian): 276 nM | TGI (NCI/ADR-RES ovarian): 4700 nM | GI50 (U251 CNS): 271 nM | TGI (U251 CNS): > 42400 nM | GI50 (BT-549 breast): 230 nM | TGI (BT-549 breast): 3350 nM | GI50 (HL-60(TB) leukemia): 304 nM | TGI (HL-60(TB) leukemia): 1010 nM | GI50 (T-47D breast): 299 nM | TGI (T-47D breast): 18600 nM | GI50 (RXF 393 renal): 93.2 nM | TGI (RXF 393 renal): 303 nM | GI50 (HOP-92 NSCLC): 116 nM | TGI (HOP-92 NSCLC): 461 nM | GI50 (OVCAR-4 ovarian): 306 nM | TGI (OVCAR-4 ovarian): 3060 nM | GI50 (HT29 colon): 251 nM | TGI (HT29 colon): > 58300 nM | GI50 (SK-MEL-28 melanoma): 252 nM | TGI (SK-MEL-28 melanoma): 1270 nM | GI50 (HCC-2998 colon): 305 nM | TGI (HCC-2998 colon): 2620 nM | GI50 (MALME-3M melanoma): 340 nM | TGI (MALME-3M melanoma): 1060 nM | GI50 (SF-295 CNS): 299 nM | TGI (SF-295 CNS): 12100 nM | GI50 (HOP-62 NSCLC): 306 nM | TGI (HOP-62 NSCLC): > 44800 nM | GI50 (M14 melanoma): 279 nM | TGI (M14 melanoma): 1010 nM | GI50 (SF-268 CNS): 296 nM | TGI (SF-268 CNS): 6850 nM | GI50 (SN12C renal): 242 nM | TGI (SN12C renal): 5570 nM | GI50 (SK-OV-3 ovarian): 781 nM | TGI (SK-OV-3 ovarian): 81900 nM | GI50 (SNB-19 CNS): 290 nM | TGI (SNB-19 CNS): 17700 nM | GI50 (SNB-75 CNS): 158 nM | TGI (SNB-75 CNS): 475 nM | GI50 (UACC-257 melanoma): 380 nM | TGI (UACC-257 melanoma): 11200 nM | GI50 (SW-620 colon): 292 nM | TGI (SW-620 colon): 12400 nM | GI50 (EKVX NSCLC): 297 nM | TGI (EKVX NSCLC): 3460 nM | GI50 (HCT-15 colon): 266 nM | TGI (HCT-15 colon): 14500 nM | GI50 (RPMI-8226 leukemia): 292 nM | TGI (RPMI-8226 leukemia): 1710 nM | GI50 (COLO 205 colon): 144 nM
